# Tests used:
# DDR1 = DDR1 (Homo sapiens (Human), UniProt Q08345); experiment: DDR1 LanthaScreen Europium Kinase Binding assay; conditions: binding; 5 nM DDR1, 20 nM Kinase Tracer 178, 1 hour at rt; Ki from IC50 by Cheng-Prusoff; read-out: Ki DDR1
# Protocol: (§1) DDR1 and DDR2 binding assays were performed using Life Technologies LanthaScreen™ Europium Kinase Binding assay. The compounds were incubated with 5 nM DDR1 (Carna Biosciences) or 5 nM DDR2 (Life Technologies) for 1 hour at rt in white 384-well OptiPlate (PerkinElmer), containing 20 nM or 10 nM Kinase Tracer 178 respectively and 2 nM Europium labelled anti-GST antibody (Life Technologies) in assay buffer (50 mM HEPES pH 7.5, 10 mM MgCI2, 1 mM EGTA and 0.01% BRIJ35). The ratio of fluorescence emission 665 nm/615 nm after excitation at 340 nm was obtained using the Tecan Spark 20M plate reader. IC50 values were determined in GraphPad Prism 7.0 software, using 4 parameter model: log(inhibitor) vs. response. IC50 values were converted in Ki using the Cheng-Prusoff equation (Ki=IC50/(1+[Tracer]/Kd).
# (§2) Compounds C1 and C2 were tested in the same binding assay described above.
# DDR2 = DDR2 (Homo sapiens (Human), UniProt Q16832); experiment: DDR2 LanthaScreen Europium Kinase Binding assay; conditions: binding; 5 nM DDR2, 10 nM Kinase Tracer 178, 1 hour at rt; Ki from IC50 by Cheng-Prusoff; read-out: Ki DDR2
# Protocol: as §1, §2
# Chain of DDR1 (Q08345 19-913): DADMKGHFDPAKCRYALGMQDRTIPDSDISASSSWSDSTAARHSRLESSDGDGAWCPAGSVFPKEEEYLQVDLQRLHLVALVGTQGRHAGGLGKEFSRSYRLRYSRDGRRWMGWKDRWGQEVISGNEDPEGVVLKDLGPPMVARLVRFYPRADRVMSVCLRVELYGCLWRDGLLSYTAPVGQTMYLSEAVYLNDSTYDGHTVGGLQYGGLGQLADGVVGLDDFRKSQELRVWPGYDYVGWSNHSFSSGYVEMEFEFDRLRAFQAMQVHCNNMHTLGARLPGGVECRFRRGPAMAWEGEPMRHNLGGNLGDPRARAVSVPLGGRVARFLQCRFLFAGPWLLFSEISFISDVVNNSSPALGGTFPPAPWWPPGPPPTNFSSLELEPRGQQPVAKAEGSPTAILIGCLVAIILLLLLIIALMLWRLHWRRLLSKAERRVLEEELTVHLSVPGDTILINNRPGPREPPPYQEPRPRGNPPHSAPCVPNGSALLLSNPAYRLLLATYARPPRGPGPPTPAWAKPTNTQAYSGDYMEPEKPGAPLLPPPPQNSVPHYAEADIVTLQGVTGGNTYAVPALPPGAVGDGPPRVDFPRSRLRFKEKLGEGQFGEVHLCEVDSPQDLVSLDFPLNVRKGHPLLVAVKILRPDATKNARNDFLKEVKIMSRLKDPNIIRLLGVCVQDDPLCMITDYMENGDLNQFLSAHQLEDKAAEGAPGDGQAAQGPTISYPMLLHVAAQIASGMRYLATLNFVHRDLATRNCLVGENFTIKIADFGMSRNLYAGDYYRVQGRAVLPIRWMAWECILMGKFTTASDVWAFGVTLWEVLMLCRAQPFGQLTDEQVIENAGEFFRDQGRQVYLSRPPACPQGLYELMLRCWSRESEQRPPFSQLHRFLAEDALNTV
# Chain of DDR2 (Q16832 22-855): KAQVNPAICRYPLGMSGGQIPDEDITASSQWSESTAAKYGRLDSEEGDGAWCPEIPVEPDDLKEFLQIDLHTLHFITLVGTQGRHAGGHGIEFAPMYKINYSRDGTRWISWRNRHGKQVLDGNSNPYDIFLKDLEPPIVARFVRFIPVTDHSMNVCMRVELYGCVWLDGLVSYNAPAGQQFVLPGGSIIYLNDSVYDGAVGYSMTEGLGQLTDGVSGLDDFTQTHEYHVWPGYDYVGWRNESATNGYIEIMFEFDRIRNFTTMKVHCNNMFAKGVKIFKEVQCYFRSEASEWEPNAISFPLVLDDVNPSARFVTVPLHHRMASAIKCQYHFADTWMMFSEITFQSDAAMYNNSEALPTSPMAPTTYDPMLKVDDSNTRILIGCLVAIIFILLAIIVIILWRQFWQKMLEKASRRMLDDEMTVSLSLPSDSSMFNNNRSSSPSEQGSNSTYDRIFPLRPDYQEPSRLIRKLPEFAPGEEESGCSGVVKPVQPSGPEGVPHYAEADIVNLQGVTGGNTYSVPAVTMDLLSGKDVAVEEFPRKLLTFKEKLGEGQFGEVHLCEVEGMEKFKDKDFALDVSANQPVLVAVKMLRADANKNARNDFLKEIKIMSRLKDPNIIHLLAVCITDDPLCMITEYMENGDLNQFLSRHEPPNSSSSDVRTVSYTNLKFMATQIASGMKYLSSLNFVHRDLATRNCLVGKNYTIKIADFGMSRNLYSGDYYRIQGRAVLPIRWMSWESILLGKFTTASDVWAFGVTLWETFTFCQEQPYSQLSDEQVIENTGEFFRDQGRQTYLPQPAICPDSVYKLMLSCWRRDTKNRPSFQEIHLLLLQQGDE
Ki (DDR1) [nM],Ki (DDR2) [nM],SMILES
10 to 25,25 to 60,"COCCn1cc(Nc2ccc(N3CC[C@@H](c4cc(C(=O)Nc5cccc(C(F)(F)F)c5)ccc4C)C3)cn2)cn1 [Example 47, (S)-3-(1-(6-((1-(2-methoxyethyl)-1H-pyrazol-4-yl)amino)pyridin-3-yl)pyrrolidin-3-yl)-4-methyl-N-(3-(trifluoromethyl)phenyl)benzamide]"
< 10,< 10,"Cc1ccc(C(=O)Nc2cccc(C(F)(F)F)c2)cc1[C@@H]1CCN(c2cnc(Nc3cnn(C)c3)nc2)C1 [Example 48, (S)-4-methyl-3-(1-(2-((1-methyl-1H-pyrazol-4-yl)amino)pyrimidin-5-yl)pyrrolidin-3-yl)-N-(3-(trifluoromethyl)phenyl)benzamide]"
< 10,10 to 25,"CNc1ncc(N2CC[C@@H](c3cc(C(=O)Nc4cccc(C(F)(F)F)c4)ccc3C)C2)cn1 [Example 49, (S)-4-methyl-3-(1-(2-(methylamino)pyrimidin-5-yl)pyrrolidin-3-yl)-N-(3-(trifluoromethyl)phenyl)benzamide]"
< 10,25 to 60,"Cc1ccc(C(=O)Nc2cccc(C(F)(F)F)c2)cc1[C@@H]1CCN(c2ccc(N)nc2)C1 [Example 50, (S)-3-(1-(6-aminopyridin-3-yl)pyrrolidin-3-yl)-4-methyl-N-(3-(trifluoromethyl)phenyl)benzamide]"
< 10,10 to 25,"CC(=O)Nc1ncc(N2CC[C@@H](c3cc(C(=O)Nc4cccc(C(F)(F)F)c4)ccc3C)C2)cn1 [Example 51, (S)-3-(1-(2-acetamidopyrimidin-5-yl)pyrrolidin-3-yl)-4-methyl-N-(3-(trifluoromethyl)phenyl)benzamide]"
< 10,< 10,"Cc1ccc(C(=O)Nc2cccc(C(F)(F)F)c2)cc1[C@@H]1CCN(c2cncc(-c3cnn(C)c3)c2)C1 [Example 52, (S)-4-methyl-3-(1-(5-(1-methyl-1H-pyrazol-4-yl)pyridin-3-yl)pyrrolidin-3-yl)-N-(3-(trifluoromethyl)phenyl)benzamide]"
< 10,10 to 25,"Cc1ccc(C(=O)Nc2ccc(CN3CCOCC3)c(C(F)(F)F)c2)cc1[C@@H]1CCN(c2cncc(C(N)=O)c2)C1 [Example 56, (S)-5-(3-(2-methyl-5-((4-(morpholinomethyl)-3-(trifluoromethyl)phenyl)carbamoyl)phenyl)pyrrolidin-1-yl)nicotinamide]"
< 10,< 10,"Cc1ccc(C(=O)Nc2cc(CN3CCCC3)cc(C(F)(F)F)c2)cc1[C@@H]1CCN(c2cncc(C(N)=O)c2)C1 [Example 57, (S)-5-(3-(2-methyl-5-((3-(pyrrolidin-1-ylmethyl)-5-(trifluoromethyl)phenyl)carbamoyl)phenyl)pyrrolidin-1-yl)nicotinamide]"
< 10,10 to 25,"Cc1ccc(C(=O)Nc2ccc(CN(C)C)c(C(F)(F)F)c2)cc1[C@@H]1CCN(c2cncc(C(N)=O)c2)C1 [Example 58, (S)-5-(3-(5-((4-((dimethylamino)methyl)-3-(trifluoromethyl)phenyl)carbamoyl)-2-methylphenyl)pyrrolidin-1-yl)nicotinamide]"
